This is an account of results in PubChem BioAssay (NCI).

Molecules are shown by their SMILES. Values joined by “and” are separate entries in the source; they are usually repeats but may differ in a detail not shown here. Equal entries are not always repeated.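 The compound was tested at five concentrations on cells cultured in 96-well plates, with a 48-hour exposure period. GI50 = concentration required for 50% inhibition of growth. The concentration for full growth arrest is given as TGI.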

Among the test systems are A549 NSCLC; RPMI-8226 leukemia; OVCAR-4 ovarian; SK-MEL-2 melanoma; NCI-H23 lung; MALME-3M melanoma; MOLT-4 leukemia; SN12C renal; MDA-MB-231 breast; OVCAR-5 ovarian.
Experiment in all cases: inhibition of tumour cell growth, NCI panel, 48 h

Take `CC(=O)c1cccc(N2COC(C)(C)c3nc4ccccc4n3C2)c1`: the TGI in the assay on A549 NSCLC, in the assay with RPMI-8226 leukemia, in the assay on OVCAR-4 ovarian, in the assay on SK-MEL-2 melanoma, with NCI-H23 lung and with MALME-3M melanoma was above 100 µM each time. Also, the TGI in the assay on MOLT-4 leukemia and with SN12C renal was above 100 µM in each case.
In the case of `CCOC(=O)C(Cc1c[nH]c2ccc(N)cc12)(NC(C)=O)C(=O)OCC`, the GI50 in the assay on A549 NSCLC, in the assay on OVCAR-4 ovarian, with NCI-H23 lung, in the assay on MALME-3M melanoma, in the assay on MDA-MB-231 breast and with SN12C renal was above 1000 µM each time. The GI50 in the assay with OVCAR-5 ovarian was above 1000 µM. The TGI in the assay with A549 NSCLC, with OVCAR-4 ovarian, with NCI-H23 lung, in the assay with MALME-3M melanoma, with MDA-MB-231 breast and with SN12C renal was above 1000 µM in each case. The molecule also yielded a TGI in the assay on OVCAR-5 ovarian above 1000 µM.
`O=C(Nc1cc(Cl)c(Cl)cc1Cl)C(=O)C1C=CCS1(=O)=O` (stereo not drawn): the TGI with A549 NSCLC, in the assay with RPMI-8226 leukemia, with OVCAR-4 ovarian, in the assay on SK-MEL-2 melanoma, in the assay on NCI-H23 lung and with MALME-3M melanoma was above 100 µM each time. Further, the TGI with MOLT-4 leukemia, with SN12C renal and with OVCAR-5 ovarian was above 100 µM in each case.
Take `COc1ccccc1N1C(=O)/C(=C/c2ccc(N(CCC#N)CCC#N)cc2C)N=C1c1cc([N+](=O)[O-])ccc1Cl`: the TGI was above 100 µM in the assay on A549 NSCLC; above 100 µM with RPMI-8226 leukemia; 71.7 µM with OVCAR-4 ovarian; above 100 µM with SK-MEL-2 melanoma; above 100 µM in the assay on NCI-H23 lung; above 100 µM in the assay on MALME-3M melanoma. The TGI in the assay on MOLT-4 leukemia, in the assay with SN12C renal and in the assay with OVCAR-5 ovarian was above 100 µM throughout.
As for `CC(C)(C#N)c1cc(Cn2cncn2)cc(C(C)(C)C#N)c1`, the GI50 in the assay with A549 NSCLC was 933 µM; in the assay with RPMI-8226 leukemia it was 183 µM; with OVCAR-4 ovarian, above 10000 µM; with NCI-H23 lung it was above 10000 µM; in the assay with MDA-MB-231 breast it was 539 µM; in the assay on SN12C renal, above 10000 µM. Besides, the GI50 in the assay with OVCAR-5 ovarian is above 10000 µM. In addition, the TGI is above 10000 µM in the assay with A549 NSCLC; 698 µM with RPMI-8226 leukemia; above 10000 µM in the assay with OVCAR-4 ovarian; 3590 µM in the assay on SK-MEL-2 melanoma; above 10000 µM with NCI-H23 lung; above 10000 µM in the assay with MDA-MB-231 breast. Besides, the TGI in the assay with SN12C renal and in the assay with OVCAR-5 ovarian was above 10000 µM throughout.
As for `COc1ccc([N+]2=NC(c3ccc([N+](=O)[O-])cc3)=NN(c3ccccc3)C2)cc1`, the TGI with A549 NSCLC is above 100 µM; with RPMI-8226 leukemia, 80 µM and > 100 µM; with OVCAR-4 ovarian it was 75.5 µM and > 100 µM; with NCI-H23 lung it was above 100 µM; in the assay on MALME-3M melanoma, above 100 µM; in the assay on MOLT-4 leukemia it was 74.4 µM and > 100 µM. Besides, the TGI in the assay with SN12C renal and in the assay with OVCAR-5 ovarian was above 100 µM throughout.
On to `CCC(Sc1cc(Cl)c(C)cc1S(=O)(=O)Nc1nc(N)nc(N(C)C)n1)C(=O)O` (stereo not drawn), for which the TGI in the assay on A549 NSCLC, in the assay on RPMI-8226 leukemia, in the assay with OVCAR-4 ovarian, in the assay with SK-MEL-2 melanoma, in the assay on NCI-H23 lung and in the assay on MALME-3M melanoma was above 10 µM in each case. Also, the TGI in the assay with MOLT-4 leukemia, in the assay on SN12C renal and in the assay on OVCAR-5 ovarian was above 10 µM each time.
In the case of `CCN(CC)CCC(=O)NC1c2ccc(Cl)cc2Oc2c(C)cccc21` (stereo not drawn), the TGI with A549 NSCLC was found to be 33.3 µM; in the assay with RPMI-8226 leukemia, 70.3 µM; in the assay with OVCAR-4 ovarian, 28.9 µM; in the assay with NCI-H23 lung it was 31.5 µM; in the assay on MOLT-4 leukemia, 38.7 µM; in the assay on MDA-MB-231 breast, 40.8 µM. Also, the values for the TGI with SN12C renal and in the assay on OVCAR-5 ovarian were 35.5 µM and 29.2 µM, respectively.
For `C=CC1(C(=O)O)CCC(C(C)(C)C)CC1` (stereo not drawn), the TGI in the assay with A549 NSCLC, in the assay on RPMI-8226 leukemia, in the assay on OVCAR-4 ovarian, in the assay on SK-MEL-2 melanoma, with NCI-H23 lung and in the assay on MALME-3M melanoma was above 100 µM in each case. Moreover, the TGI in the assay on MOLT-4 leukemia, with SN12C renal and in the assay with OVCAR-5 ovarian was above 100 µM each time.
In the case of `Cc1c(NC(=O)C(C)(C)Br)c(=O)oc2c(C)c3occc(=O)c3cc12`, the TGI in the assay with A549 NSCLC, in the assay with RPMI-8226 leukemia, in the assay on OVCAR-4 ovarian, in the assay with SK-MEL-2 melanoma, with NCI-H23 lung and in the assay with MALME-3M melanoma was above 100 µM each time. Further, the TGI in the assay on MOLT-4 leukemia and in the assay on SN12C renal was above 100 µM in each case.
Turning to `Cc1cc(Cl)ccc1NC(=O)CCCC(=O)C1CCCC1=O` (stereo not drawn), the TGI in the assay on A549 NSCLC, in the assay with RPMI-8226 leukemia, with OVCAR-4 ovarian, in the assay with SK-MEL-2 melanoma, with NCI-H23 lung and in the assay with MALME-3M melanoma was above 100 µM throughout. For the same molecule, the TGI in the assay on MOLT-4 leukemia, in the assay on SN12C renal and in the assay with OVCAR-5 ovarian was above 100 µM each time.
As for `O=[N+]([O-])c1cccc(C2N3CCCCC3[C@@H]3c4[nH]c5ccccc5c4CCN23)c1` (stereo partly drawn), the TGI in the assay with A549 NSCLC is 45.5 µM; in the assay with RPMI-8226 leukemia, above 100 µM; with OVCAR-4 ovarian, 32.2 µM; in the assay with SK-MEL-2 melanoma, 22 µM; in the assay on NCI-H23 lung, 25.3 µM; with MALME-3M melanoma it was 18.9 µM. Besides, the values for the TGI with MOLT-4 leukemia, with SN12C renal and in the assay with OVCAR-5 ovarian were above 100 µM, 27.6 µM and 32.7 µM, respectively.
As for `Cc1[nH]c2ccccc2c1C1Cc2ccccc2N1C(=O)/C=C\C(=O)O` (stereo not drawn), the TGI in the assay with A549 NSCLC is above 100 µM; in the assay with OVCAR-4 ovarian, above 100 µM; in the assay with SK-MEL-2 melanoma it was 39.6 µM; with NCI-H23 lung, above 100 µM; in the assay with MALME-3M melanoma, above 100 µM; with MOLT-4 leukemia, above 100 µM. Further, the TGI in the assay with SN12C renal and in the assay with OVCAR-5 ovarian was above 100 µM throughout.
